# Data published in patent publication US8030444B2, “Microbicidal compositions comprising human CD38 polypeptides derived from the extracellular membrane-proximal region” (priority 2002, dated 2011).
# Read-outs that look alike come from different tables or passages of the source. Ends that are not written are not given here.
# How the values were obtained:
# [1] = test system: primary HIV-1 isolates (R5); test: Infection of PBMC by primary HIV-1 isolates, p24 ELISA; format: cell-based
# [2] = biological target: T1, recombinant soluble human (rsh) CD4 (Homo sapiens, UniProt P01730); test: Binding of biotin-conjugated peptide to plate-adsorbed rshCD4 (ELISA); settings: 0.1-10 μM peptide
# T1 construct: recombinant soluble human (rsh) CD4 (2 μg/ml) (R&D Systems); purchased R&D Systems
# Experimental: Synthetic peptides from CD38 (SEQ ID NO:23) were conjugated with biotin (Pierce) as described in Wilchek, M., and Bayer, E. A., “Avidin-biotin technology,” Methods Enzymol., 184:1-746 (1990). Briefly, recombinant soluble human (rsh) CD4 (2 μg/ml) (R&D Systems) was adsorbed onto wells of 96-well-ELISA plates. Wells were then saturated with phosphate buffer saline (PBS)+2% bovine serum albumin (BSA), washed with PBS+1% BSA+0.05% Triton X-100, and the plates were incubated for 2 h at 37° C. with 100 μL of different concentrations (0.1-10 μM) of biotin-conjugated peptide. After six washes, 100 microl of streptavidin-conjugated horseradish peroxidase (HRP) from a commercially available HIV-1 p24 ELISA kit (NEN) diluted 1:100 in PBS+1% BSA was added to the wells for 30 min. at room temperature. After six more washes, the wells were incubated in the dark for 30 min. at room temperature with 100 μL of o-phenylenediamine (OPD tablets-Sigma), a chromogenic substrate for HRP diluted in phosphate-citrate buffer pH 5.0 as indicated in the Manufacturer's instructions. Then, the reaction was stopped by adding to each well 100 μL of 4 N sulfuric acid. Plates were read at 450 nm using an automated ELISA reader. […] Negative controls were run by incubating the wells with each of the titrated peptide in the absence of rshCD4 and performing the same steps described above. […]
# MT-4 cells = test: Toxicity assays (trypan blue, MTT, propidium iodide/annexin V) on MT-4 cells; format: cell-based
# Experimental: (§1) Cell proliferation was assessed by sequential counts of the number of live cells per ml of cell cultures by the trypan-blue exclusion method. Cell viability and apoptosis were analyzed by the methyl tetrazolium (MTT) method (Sigma-Aldrich) according to a procedure previously described in Savarino, A., Calosso, L., Piragino, A., Martini, C., Gennero, L., Pescarmona, G. P., and Pugliese, A. (1999). Modulation of surface transferrin receptors in lymphoid cells de novo infected with human immunodeficiency virus type-1. Cell. Biochem. Funct 17, 47-55, the contents of which are hereby incorporated in their entirety, and by propidium iodide/annexin V FITC staining (MedSystems Diagnostics GmbH, Vienna, Austria) following the manufacturer's instructions.
# (§2) Cells (from established cell lines or primary cultures) were resuspended at 2.5×10^5/ml in the presence of 0, 0.1, 1, 10 and 100 nM CD3851-74 MBP. Then, 200 μL portions were transferred to microtiter trays and maintained at 37° C. […] Cell viability was monitored daily by trypan blue-dye exclusion. Cell proliferation was assessed by sequential counts of the number of live cells per ml of cell cultures by the trypan-blue exclusion method. Cell viability and apoptosis were analyzed by the methyl tetrazolium (MTT) method, and by propidium iodide/annexin V fluorescein isothiocyanate (FITC) staining following the manufacturer's instructions. […]
# [3] = test system: HIV-1IIIB-infected MT-4 cells; test: HIV-1 cytopathogenicity in MT-4 cells, re-clustering after cluster disruption; format: cell-based; settings: five days post-infection with HIV-1IIIB, 100 μM (FIG. 6)
# Experimental: MT-4 cells display a typical clustered pattern. When infected with HIV-1IIIB, MT-4 cells lose the capacity of forming clusters. At five days post-infection, clusters were dissociated by pipetting, and reclustering was examined microscopically after a 3-h incubation at 37° C., as described by Pauwels et al. Pauwels, R., et al., “Sensitive and rapid assay on MT-4 cells for detection of antiviral compounds against the AIDS virus,” J Virol Methods, 16: 171-185 (1987). In MT-4 cells, in fact, HIV-1IIIB acts as a slow/low syncytium-inducing strain whose cytopathic effect consists in loss of cell ability to cluster and is strictly correlated to the level of viral replication.
# HIV-1IIIB [4] = test system: HIV-1IIIB
# [5] = biological target: FITC-conjugated HIV-1IIIB gp120; test: gp120 attachment assay, FITC-gp120 staining of cells by flow cytometry; format: binding; settings: MT-2 cells, 50 nM peptide, 5 μg/ml gp120
# Experimental: In gp120 attachment assays, cells were incubated for 30 min. at 4° C. with 2 μg/ml of FlTC-conjugated HIV-1IIIB gp120 (gp120IIIB, Intracell Corp, London, UK) in PBS plus 2% albumin plus 0.01% NaN3 (PBS A/A) in the presence or absence of CD38 or CD38-derived molecules. Cells were then washed three times in PBS A/A, and fluorescence was acquired by flow cytometry. Fluorescence data were expressed as MeFI and normalized for CD4 expression where necessary.
# In gp120 attachment assays, cells were incubated with saturating concentrations of FITC-conjugated gp120 from the HIV-1IIIB strain (gp120IIIB) (Intracell Corp, London, UK) in the presence or absence of CD3851-74, (SEQ ID NO:15, 21), and acquired fluorescence flow-cytometrically. The MeFI was used as an estimate of gp120 binding to cells.
# HIV-1 gp120 binding experiments confirmed that CD3851-74 MBP inhibits at the level of gp120 attachment to target cells. In these experiments, MT-2 cells were incubated for 30 min. at 4° C. with saturating concentrations (5 μg/ml) of fluorescein isothiocyanate-labeled (FITC) HIV-1IIIB gp 120 (gp 120IIIB) in PBS plus 2% albumin plus 0.01% NaN3 (PBS A/A) in the presence or absence of 50 nM CD3851-74 MBP. Cells were then washed three times in PBS A/A, and fluorescence was acquired by flow cytometry.
# HeLa cells = test: Toxicity assays (trypan blue, MTT, propidium iodide/annexin V) on HeLa cells; format: cell-based; settings: 0.1-100 nM
# Experimental: as §1, §2
# [6] = test system: primary peripheral blood mononuclear cells (PBMC); test: Toxicity assays (trypan blue, MTT, propidium iodide/annexin V) on PBMC; format: cell-based
# Experimental: as §1, §2
# PHA-stimulated PBMC = test: Cytokine production by PBMC in response to PHA; format: cell-based
# Experimental: To evaluate whether CD3851-74 MBP might costimulate activation of PBMC, tests were conducted to evaluate cytokine production in response to PHA. For this purpose, PBMC were ficoll-separated and incubated with 0, 0.1, 1, 10 nM CD3851-74 MBP, in the presence of 0.1 or 1 μg/ml PHA. Then, supernatants were collected at 4, 12, 24, and 36 h of incubation, and the levels of TNF-alpha, IFN-gamma, IL-02, IL-4, IL-5, IL-6 and IL-10 were tested by ELISA (R and D Systems, Minneapolis, Minn.) or by cytofluorimetric multi-cytokine bead arrays (Becton-Dickinson). […] Some of these effects are depicted in the FIGS. 14, 15, 16 and 17. […] However, if significant, it would not be of safety concern. By contrast, it would support the anti-HIV effect of CD3851-74 MBP, since both TNF-alpha and IL-6 promote HIV-1 replication. […] De S K, Devadas K, Notkins A L. Elevated levels of tumor necrosis factor alpha (TNF-alpha) in human immunodeficiency virus type 1-transgenic mice: prevention of death by antibody to TNF-alpha. J Virol 2002; 76: 11710-4.
# [7] = Water solubility of peptides
# HIV-1IIIB [8] = test: HIV-1IIIB infection of wild-type MT-2 cells in presence of soluble CD38; format: cell-based
# Experimental: In acute infection assays, the appropriate cell types were incubated at 37° C. for 2 h with the viral stock suspensions at a multiplicity of infection (MOI) of approximately 0.1, unless otherwise specified. After three washes, cells were incubated in fresh culture medium for 7 days at 37° C., and cell-free supernatants at different intervals post-infection were harvested for ELISA measurement of HIV-1 p24 (NEN Life Science Prod., Boston Mass.) or HIV-2 p27 (Coulter, Hialeah, Fla.). Where necessary, soluble CD38-derived molecules were added during the step of virus adsorption onto cells.
# First, attention was focused on the intracellular (IC) domain of CD38. HIV-1IIIB was used to infect both a MT-2 cell line transfected with a truncated form of CD38 lacking the IC domain (CD3824-300) and wild-type MT-2 cells in the presence of a recombinant soluble form of CD38 consisting solely of the extracellular (EC) domain (sCD3845-300).
substance,measurement,setting,value
(GPGTTK)8 polylysin (also: eight copies on polylysine core (MBP); listed as Homo sapiens) [GPGTTK MBP],anti-HIV activity against higher viral challenge,"[1]; HIV-1UG3, PBMC, MOI 0.5, 1 nM",maintains the anti-HIV activity
same,association of biotin-conjugated peptide to rshCD4 (O.D.),[2],associated to rshCD4 in a manner dependent on the concentration
same,toxic effects on MT-4 cells,MT-4 cells; concentrations showing anti-HIV effects,no toxic effects
same,ability of infected MT-4 cultures to form clusters,[3],maintained a partial ability to form clusters
same,inhibition of HIV-1IIIB replication (in words),"HIV-1IIIB [4]; MT-4 cells, p24 ELISA",dose-dependently inhibited infection
(SGPGTTKRFPETVLACVKYTEIH)8 polylysin [CD3851-74 MBP],gp120-FITC binding to cells,[5],down-modulated
same,growth kinetics of primary R5 isolates subtype C (VI 829) and subtype A (UG3),"[1]; PBMC, 1 nM",delayed the growth kinetics
same,estimated selectivity index,"[1]; antiviral effects at 0.1 nM, no toxicity up to 100 nM",1000
same,concentration range inhibiting infection of PBMC by primary HIV-1 isolates,"[1]; pilot experiments, PBMC, isolate VI 829",0.1 to 10 nM
same,concentration at which antiviral effects were detected,[1]; see Example IV,0.1 nM
same,"cell proliferation, viability and death","MT-4 cells; MT-4 cells, 0.1-100 nM",does not alter cell proliferation and viability nor does it induce death
same,"cell proliferation, viability and death",HeLa cells,does not alter cell proliferation and viability nor does it induce death
same,toxicity in uninfected PBMC cultures,"[6]; 0.1 nM-100 nM, growth kinetics, trypan blue, MTT, annexin V/propidium iodide",did not display any significant toxicity
same,"cell proliferation, viability and death","[6]; PBMC, PHA-stimulated or unstimulated, three donors, 0.1-100 nM",does not alter cell proliferation and viability nor does it induce death
same,"IL-2, IL-4, IL-5 and IL-10 levels versus untreated cells","PHA-stimulated PBMC; PBMC, 0.1 or 1 μg/ml PHA, 0.1, 1, 10 nM peptide",essentially identical
same,TNF-alpha and IL-6 levels,"PHA-stimulated PBMC; PHA-stimulated PBMC, decrease did not reach statistical significance",transient and donor-dependent inhibition
same,range of inhibitory concentrations lower than that of CD3851-74,"HIV-1IIIB [4]; HIV-1 replication, compared with Example I",approximately 1000 fold
same,concentration range of dose-dependent inhibition of HIV-1IIIB infection,"HIV-1IIIB [4]; MT-4 cells, p24 ELISA Day 3",1 to 10 nM
same,EC50,"HIV-1IIIB [4]; read-out: EC50, inhibition of HIV-1IIIB infection, MT-4 cells, p24 ELISA Day 3, peptide added only during virus adsorption",12 nM
same,EC90,"HIV-1IIIB [4]; read-out: EC90, inhibition of HIV-1IIIB infection, MT-4 cells, p24 ELISA Day 3, peptide added only during virus adsorption",75 nM
RWRQQWSGPGTTKRFPETVLARCVKYTEIH [SEQ ID NO: 16],water solubility,[7],water-insolubility
sCD3845-300: recombinant soluble form of CD38 consisting solely of the extracellular (EC) domain,HIV infection of MT-2 cells,HIV-1IIIB [8],inhibited HIV infection
RQQWSGPGTTKRFPETVLARCVKYTEIH [SEQ ID NO: 17],water solubility,[7],water-insolubility
RWRQTWSGPGTTK [SEQ ID NO: 14],water solubility,[7],water-insolubility
SGPGTTKRFPETVLARCVKYTEIH [CD3851-74],EC50,"HIV-1IIIB [4]; 1IIIB, 2 h",2200 nM
same,EC90,"HIV-1IIIB [4]; 1IIIB, 2 h",182000 nM
same,toxic effects at the concentrations used,cell cultures,did not carry out toxic effects
RWRQTWSGPGTTKRFPETVLARCVKYTEIH [SEQ ID NO: 12],water solubility,[7],water-insolubility
RQTWSGPGTTKRFPETVLARCVKYTEIH [SEQ ID NO: 13],water solubility,[7],water-insolubility
